# Patent publication US20250018049A1, “COMPOUNDS FOR DEGRADING CYCLIN-DEPENDENT KINASE 2 VIA UBIQUITIN PROTEOSOME PATHWAY” (NIKANG THERAPEUTICS, INC., priority 2020, published 2025)
# What was measured:
# Type in all cases: cell-based
# CDK2 [1] = target: T1, CDK2 (Homo sapiens, UniProt P24941); test: NanoBRET CDK2 engagement assay; design: expressed in transfected cells; conditions: OVCAR3 cells with stable CDK2-Luciferase vector, 24 hours treatment
# Method in brief: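 OVCAR3 cells stably expressing CDK2-luciferase, in Opti-MEM with 1% FBS, treated 24 h at 37° C with compound from 3 μM in ½-log steps to 0.3 nM; NanoBRET tracer present for final 2 h. Donor/acceptor emission read; engagement normalized to DMSO as 100% signal, IC50 by curve fit.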
# CDK2 [2] = target: T1, CDK2; test: Phospho-Rb HTRF measurement in OVCAR3 cells (inhibition of CDK2); design: High-Throughput Measurement of Cellular Endogenous CDK2; endogenous in cells; host or cells: OVCAR3; conditions: pRB(S807/811) assay, 24 h compound treatment
# CDK1 = target: T2, CDK1 (Homo sapiens, UniProt P06493); test: Phospho-Rb HTRF measurement in KYSE520 cells (inhibition of CDK1); conditions: CDK2-dependent OVCAR3 vs CDK2-independent but CDK1-dependent KYSE520 cell line
# T2 construct: endogenous in cells; host or cells: KYSE520
# T2 sequence (P06493 whole entry): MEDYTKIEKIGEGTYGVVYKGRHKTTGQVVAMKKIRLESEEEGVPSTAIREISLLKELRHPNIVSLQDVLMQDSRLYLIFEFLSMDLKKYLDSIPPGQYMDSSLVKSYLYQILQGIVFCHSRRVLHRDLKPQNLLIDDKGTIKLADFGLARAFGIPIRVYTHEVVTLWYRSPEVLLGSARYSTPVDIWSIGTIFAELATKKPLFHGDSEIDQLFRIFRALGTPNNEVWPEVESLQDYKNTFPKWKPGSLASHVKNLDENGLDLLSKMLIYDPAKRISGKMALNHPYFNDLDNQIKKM
# T2 sequence (P14635 whole entry partner): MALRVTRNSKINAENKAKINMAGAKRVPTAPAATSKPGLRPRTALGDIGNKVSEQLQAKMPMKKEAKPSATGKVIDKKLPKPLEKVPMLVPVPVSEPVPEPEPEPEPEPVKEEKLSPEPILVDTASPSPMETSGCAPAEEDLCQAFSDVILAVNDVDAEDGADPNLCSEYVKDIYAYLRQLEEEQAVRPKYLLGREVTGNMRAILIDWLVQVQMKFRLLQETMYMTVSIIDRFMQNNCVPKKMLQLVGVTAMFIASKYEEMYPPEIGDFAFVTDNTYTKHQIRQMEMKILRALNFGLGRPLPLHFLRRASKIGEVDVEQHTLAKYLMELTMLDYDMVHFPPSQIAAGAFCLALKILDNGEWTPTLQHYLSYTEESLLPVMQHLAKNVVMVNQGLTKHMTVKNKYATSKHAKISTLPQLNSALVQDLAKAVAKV
# Protocol: Phosphorylation of RB protein at S780 and S807/811 were measured using HTRF phospho-RB cellular kits (Cat #64RBS780PEG and 64RBS807PEG) from Cisbio.
# On Day 1, OVCAR3 or KYSE520 cells were seeded into 96-well tissue-culture treated plates at 20,000 cells/well in 200 μL and incubated overnight at 37° C. in CO2 atmosphere. On Day 2, the cells were treated with test compounds at concentrations from 0.3 to 10,000 nM using HP D300 digital dispenser. Twenty-four hours after compound treatment, cell culture media was removed by flicking the plate and tapping the plate against clean paper towel. Immediately 30 μL 1× lysis buffer was supplemented from the kit and the plate was incubated at room temperature on shaker for 30 min. After homogenization by pipetting up and down, 8 μL cell lysate from 96-well cell culture plate was transferred to 384-well small volume white detection plate. 2 μL premixed detection solution was added and the plate was covered with sealer. To prepare the detection solution, d2 conjugated-phospho-RB antibody and Eu-cryptate conjugated phosphor-RB antibody were diluted into detection buffer following manufacturer's instruction. Detection plates were incubated for 4 h at room temperature and read on ClarioStar (BMG Labtech) in TR-FRET mode (665 nM and 620 nM). The TR-FRET ratio (665 nM/620 nM) was plotted against the compound concentration and normalized to DMSO controls. Half maximal inhibition concentration (IC50) values are calculated with a four-parameter logistic fit using GraphPad Prism (version 8; La Jolla, CA).
# Compound 5 was not tested in the KYSE520 cell line.
# CDK2 [3] = target: T1, CDK2; test: CDK2 HTRF assay (cellular endogenous CDK2 level); design: High-Throughput Measurement of Cellular Endogenous CDK2; endogenous in cells; host or cells: OVCAR3; conditions: OVCAR-3; OVCAR3 cells, 24 hours, 0.3 to 10,000 nM; read-out: max degradation of CDK2
# Method in brief: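 OVCAR3 cells treated 24 h with compounds at 0.3–10,000 nM, then lysed and total CDK2 measured by HTRF using d2- and Eu-cryptate-labelled CDK2 antibodies (TR-FRET 665/620 nm ratio). Signal normalized to DMSO controls; DC50 from four-parameter logistic fit.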
Structure (SMILES),IC50 (CDK2 [1]),IC50 (CDK2 [2]),times more potent pRb inhibition in OVCAR3 than in KYSE520 (CDK1),Dmax (CDK2 [3])
"Cn1c(=O)n(C2CCC(=O)NC2=O)c2cccc(CNCCOc3cccc(S(=O)(=O)N4CCC(Nc5ncc6ccc(=O)n(C7CCCC7)c6n5)CC4)c3)c21 (centres unmarked) [Compound 41, 3-(4-(((2-(3-((4-((8-cyclopentyl-7-oxo-7,8-dihydropyrido[2,3-d]pyrimidin-2-yl)amino)-piperidin-1-yl)sulfonyl)phenoxy)ethyl)amino)-methyl)-3-methyl-2-oxo-2,3-dihydro-1H-benzo[d]imidazol-1-yl)piperidine-2,6-dione]",214 nM,267 nM,~20.5 times,
"O=C1CCC(N2C(=O)c3cccc(NCCOCCOCCOCCNS(=O)(=O)N4CCC(Nc5ncc6ccc(=O)n(C7CCCC7)c6n5)CC4)c3C2=O)C(=O)N1 (centres unmarked) [Compound 21, 4-((8-cyclopentyl-7-oxo-7,8-dihydropyrido[2,3-d]pyrimidin-2-yl)amino)-N-(2-(2-(2-(2-((2-(2,6-dioxopiperidin-3-yl)-1,3-dioxoisoindolin-4-yl)amino)ethoxy)ethoxy)ethoxy)ethyl) piperidine-1-sulfonamide]",1170 nM,422 nM,~11 times,
"O=C1CCC(N2Cc3cc(N4CCC(CN5CCC(c6cccc(S(=O)(=O)N7CCC(Nc8ncc9ccc(=O)n(C%10CCCC%10)c9n8)CC7)c6)CC5)CC4)ccc3C2=O)C(=O)N1 (centres unmarked) [Compound 34, 3-(5-(4-((4-(3-((4-((8-cyclopentyl-7-oxo-7,8-dihydropyrido[2,3-d]pyrimidin-2-yl)amino)-piperidin-1-yl)sulfonyl)phenyl)piperidin-1-yl)-methyl)piperidin-1-yl)-1-oxoisoindolin-2-yl)-piperidine-2,6-dione]",86 nM,50.3 nM,~10.5 times,35 to 90%
"O=C1CCC(N2Cc3cc(N4CC(N5CCC(Oc6cccc(S(=O)(=O)N7CCC(Nc8ncc9ccc(=O)n(C%10CCCC%10)c9n8)CC7)c6)CC5)C4)ccc3C2=O)C(=O)N1 (centres unmarked) [Compound 28, 3-(5-(3-(4-(3-((4-((8-cyclopentyl-7-oxo-7,8-dihydropyrido[2,3-d]pyrimidin-2-yl)amino)-piperidin-1-yl)sulfonyl)phenoxy)piperidin-1-yl)-azetidin-1-yl)-1-oxoisoindolin-2-yl)piperidine-2,6-dione]",176 nM,52.9 nM,~21 times,35 to 90%
